# Patent US20040157891A1, “Inhibitor of cox” (FUJISAWA PHARMACEUTICAL CO., LTD., priority 2003, published 2004)
# Columns and labels:
# arthritic rats = experiment: Analgesic activity: effect on adjuvant arthritis in rats (Randall-Selitto); type: in vivo, Lewis rats; settings: single dose 3.2 mg/kg; mechanical pain threshold of left hind paw 2 hrs after administration; ratio to non-treated rats
# COX-II = molecular target: T1, COX-II (Homo sapiens, UniProt P35354); experiment: Whole blood assay for COX-II (LPS-induced PGE2 production); type: cell-based; settings: lipopolysaccharide 24 hrs at 37° C.
# T1 construct: incubation of the blood with 10 μL of 5 mg/mL lipopolysaccharide for 24 hrs at 37° C. for induction of COX-II; from tissue; host or cells: heparinized fresh human whole blood from volunteers, LPS-stimulated for 24 h; PGE2 read-out
# T1 sequence (P35354 18-604): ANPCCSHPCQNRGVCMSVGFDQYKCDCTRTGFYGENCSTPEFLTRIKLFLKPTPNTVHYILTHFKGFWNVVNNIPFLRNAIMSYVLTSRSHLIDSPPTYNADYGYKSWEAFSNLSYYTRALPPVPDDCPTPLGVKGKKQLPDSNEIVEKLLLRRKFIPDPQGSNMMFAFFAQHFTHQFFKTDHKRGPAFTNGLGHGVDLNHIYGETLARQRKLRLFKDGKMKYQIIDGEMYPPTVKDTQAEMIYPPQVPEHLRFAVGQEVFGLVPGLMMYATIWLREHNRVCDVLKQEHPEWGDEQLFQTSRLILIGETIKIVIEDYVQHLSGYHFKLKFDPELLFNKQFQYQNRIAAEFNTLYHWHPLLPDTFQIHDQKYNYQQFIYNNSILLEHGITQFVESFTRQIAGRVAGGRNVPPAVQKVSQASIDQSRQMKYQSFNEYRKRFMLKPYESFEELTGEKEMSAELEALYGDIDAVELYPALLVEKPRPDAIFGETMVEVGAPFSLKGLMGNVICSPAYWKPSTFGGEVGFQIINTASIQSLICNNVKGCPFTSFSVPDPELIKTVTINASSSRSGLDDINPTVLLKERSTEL
# Procedure: Whole Blood Assay for COX-II
# Fresh blood was collected in heparinized tubes by syringe from volunteers with consent. The subjects had no apparent inflammatory conditions and had not taken any medication for at least 7 days prior to blood collection.
# 500 μL aliquots of human whole blood were incubated with either 2 μL dimethyl sulfoxide vehicle or 2 μL of a test compound at final concentrations for 15 min at 37° C. This was followed by incubation of the blood with 10 μL of 5 mg/mL lipopolysaccharide for 24 hrs at 37° C. for induction of COX-II. Appropriate PBS treatments (no LPS) were used as blanks. At the end of the incubation, the blood was centrifuged at 6000×g for 5 min at 4° C. to obtain plasma. A 100 μL aliquot of plasma was mixed with 400 μL methanol for protein precipitation. The supernatant was obtained by centrifuging at 6000×g for 5 min at 4° C. and was assayed for prostaglandin E2 (PGE2) using a radioimmunoassay kit after conversion of PGE2 to its methyl oximate derivative according to the manufacturer's procedure.
# For a test compound, the results were expressed as percent inhibition of PGE2 production relative to control incubations containing dimethyl sulfoxide vehicle. The data were analyzed by that a test compound at the indicated concentrations was changed log value and was applied simple linear regression. IC50 value was calculated by least squares method.
# COX-I = molecular target: T2, COX-I (Homo sapiens, UniProt P23219); experiment: Whole blood assay for COX-I (TXB2 production); type: cell-based; settings: 1 hr at 37° C.
# T2 construct: Fresh blood was collected by syringe without anticoagulants from volunteers with consent; from tissue; host or cells: fresh human whole blood from volunteers, left to clot; TXB2 read-out
# Procedure: Whole blood assay for COX-I
# Fresh blood was collected by syringe without anticoagulants from volunteers with consent. The subjects had no apparent inflammatory conditions and had not taken any medication for at least 7 days prior to blood collection.
# 500 μL Aliquots of human whole blood were immediately incubated with 2 μL of either dimethyl sulfoxide vehicle or a test compound at final concentrations for 1 hr at 37° C. to allow the blood to clot. Appropriate treatments (no incubation) were used as blanks. At the end of the incubation, 5 μL of 250 mM Indomethacin was added to stop the reaction. The blood was centrifuged at 6000×g for 5 min at 4° C. to obtain serum. A 100 μL aliquot of serum was mixed with 400 μL methanol for protein precipitation. The supernatant was obtained by centrifuging at 6000×g for 5 min at 4° C. and was assayed for TXB2 using an enzyme immunoassay kit according to the manufacturer's procedure. For a test compound, the results were expressed as percent inhibition of thromboxane B2(TXB2) production relative to control incubations containing dimethyl sulfoxide vehicle.
# The data were analyzed by that a test compound at the indicated concentrations was changed log value and was applied simple linear regression. IC50 value was calculated by least squares method.
# T2 sequence (P23219 24-599): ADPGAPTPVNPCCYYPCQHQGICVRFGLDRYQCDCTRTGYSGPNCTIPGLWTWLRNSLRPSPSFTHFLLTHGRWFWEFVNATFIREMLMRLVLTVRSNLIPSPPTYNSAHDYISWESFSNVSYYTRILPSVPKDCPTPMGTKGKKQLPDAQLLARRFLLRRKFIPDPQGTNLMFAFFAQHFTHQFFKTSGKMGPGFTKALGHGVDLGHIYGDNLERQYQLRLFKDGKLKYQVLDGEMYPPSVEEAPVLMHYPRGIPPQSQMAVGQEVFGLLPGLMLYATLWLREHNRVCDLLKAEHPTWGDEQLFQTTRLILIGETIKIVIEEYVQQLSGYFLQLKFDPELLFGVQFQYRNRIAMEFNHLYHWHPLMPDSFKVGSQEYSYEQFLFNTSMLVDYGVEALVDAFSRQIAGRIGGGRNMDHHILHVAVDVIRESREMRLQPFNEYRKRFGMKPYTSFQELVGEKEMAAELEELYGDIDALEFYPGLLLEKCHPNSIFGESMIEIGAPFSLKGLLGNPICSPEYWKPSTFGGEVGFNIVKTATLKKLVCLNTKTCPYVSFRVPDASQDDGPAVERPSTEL
melting point,IC50 (COX-II),IC50 (COX-I),SMILES,The coefficient of analgesic (arthritic rats)
85 to 86 °C,–,–,"COCc1nc(-c2ccc(OC)cc2)c(-c2ccc(C#N)cc2)o1 [Example 80-3, 4-[2-(Methoxymethyl)-4-(4-methoxyphenyl)-1,3-oxazol-5-yl]benzonitrile]",–
126 to 128 °C,> 100 nM,< 10 nM,"COc1ccc(-c2nc(C(F)F)oc2-c2ccc(OCCO)cc2)cn1 [Example 33, 2-{4-[2-(Difluoromethyl)-4-(6-methoxy-3-pyridinyl)-1,3-oxazol-5-yl]phenoxy}ethanol]",>1.5
156 to 158 °C,–,–,"COc1ccc(-c2oc(C(=O)c3ccccc3)nc2-c2ccc(OC)nc2)cc1 [Example 73, [5-(4-Methoxyphenyl)-4-(6-methoxy-3-pyridinyl)-1,3-oxazol-2-yl](phenyl)methanone]",–
87 to 89 °C,–,–,"COc1ccc(-c2oc(C(F)F)nc2-c2ccc(OC)nc2)cc1 [Example 77, 5-[2-(Difluoromethyl)-5-(4-methoxyphenyl)-1,3-oxazol-4-yl]-2-methoxypyridine]",–
114 to 116 °C,> 100 nM,< 10 nM,"COc1ccc(-c2nc(C(F)F)oc2-c2ccc(OCCO)cc2)cc1 [Example 12, 2-{4-[2-(Difluoromethyl)-4-(4-methoxyphenyl)-1,3-oxazol-5-yl]phenoxy}ethanol]",>1.5
–,> 100 nM,< 10 nM,"COc1ccc(-c2nc(C3CC3)oc2-c2ccc(OCCO)cc2)cn1 [Example 118, 2-{4-[2-Cyclopropyl-4-(6-methoxy-3-pyridinyl)-1,3-oxazol-5-yl]phenoxy}ethanol]",>1.5
95 to 97 °C,–,–,"CCOC(=O)c1nc(-c2ccc(OC)cc2)c(-c2ccc(OC)cc2)o1 [Example 1-2, Ethyl 4,5-bis(4-methoxyphenyl)-1,3-oxazole-2-carboxylate]",–
–,> 100 nM,< 10 nM,"COc1ccc(-c2nc(C(F)(F)F)oc2-c2ccc(OCCNC(N)=O)cc2)cn1 [Example 55, N-(2-{4-[4-(6-Methoxy-3-pyridinyl)-2-(trifluoromethyl)-1,3-oxazol-5-yl]phenoxy}ethyl)urea]",>1.5
–,> 100 nM,< 10 nM,"COc1ccc(-c2nc(C(F)(F)F)oc2-c2ccc(OCCNS(C)(=O)=O)cc2)cn1 [Example 54, N-(2-{4-[4-(6-Methoxy-3-pyridinyl)-2-(trifluoromethyl)-1,3-oxazol-5-yl]phenoxy}ethyl)methanesulfonamide]",>1.5
164 to 166 °C,–,–,"COc1ccc(-c2nc(C(=O)c3ccccc3)oc2-c2ccc(OC)cc2)cc1 [Example 6, [4,5-Bis(4-methoxyphenyl)-1,3-oxazol-2-yl](phenyl)methanone]",–
–,> 100 nM,< 10 nM,"COc1ccc(-c2nc(C3CC3)oc2-c2ccc(OCCNS(C)(=O)=O)cc2)cn1 [Example 122, N-(2-{4-[2-Cyclopropyl-4-(6-methoxy-3-pyridinyl)-1,3-oxazol-5-yl]phenoxy}ethyl)methanesulfonamide]",>1.5
133 to 135 °C,–,–,"COc1ccc(-c2nc(C(N)=O)oc2-c2ccc(OC)cc2)cc1 [Example 2, 4,5-Bis(4-methoxyphenyl)-1,3-oxazole-2-carboxamide]",–
139 to 140 °C,–,–,"COc1ccc(-c2nc(C(C)=O)oc2-c2ccc(OC)cc2)cc1 [Example 5, 1-[4,5-Bis(4-methoxyphenyl)-1,3-oxazol-2-yl]ethanone]",–
151 to 153 °C,–,–,"COc1ccc(-c2oc(CO)nc2-c2ccc(C#N)cc2)cc1 [Example 79, 4-[2-(Hydroxymethyl)-5-(4-methoxyphenyl)-1,3-oxazol-4-yl]benzonitrile]",–
